In ChEMBL document CHEMBL1201862, “PubChem BioAssay data set” (2004):
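Each compound was tested at five concentrations against cells in 96-well plates for 48 hours. Abbreviation: GI50, concentration required for 50% inhibition of growth.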 Active and inactive are the calls of the source. No stated cut-off is given here; in the data, active = GI50 up to about 1.1 µM and inactive = higher.

Columns and labels:
Experiment in all cases: NCI tumour cell line growth inhibition, 48 h
[1] = test system: NCI-H226
[2] = test system: SK-OV-3
[3] = test system: SF-295
[4] = test system: IGROV-1
[5] = test system: SF-268
[6] = test system: Malme-3M
[7] = test system: RPMI-8226
[8] = test system: HT-29
[9] = test system: TK-10
[10] = test system: MOLT-4
[11] = test system: K562
[12] = test system: OVCAR-4
[13] = test system: RXF 393
[14] = test system: LOX IMVI
[15] = test system: KM12
[16] = test system: A549
[17] = test system: BT-549
[18] = test system: SW-620
[19] = test system: U-251

Row | Structure (SMILES) | GI50 [1] | GI50 [2] | GI50 [3] | GI50 [4] | GI50 [5] | GI50 [6] | GI50 [7] | GI50 [8] | GI50 [9] | GI50 [10] | GI50 [11] | GI50 [12] | GI50 [13] | GI50 [14] | GI50 [15] | GI50 [16] | GI50 [17] | GI50 [18] | GI50 [19]
1 | O=C(CCc1ccccc1)ON1C(=S)C(c2ccccc2)(c2ccccc2)N=C1Sc1ccccc1 | 45.3 µM (inactive) | 45.1 µM (inactive) | 31 µM (inactive) | 6.53 µM (inactive) | 22.7 µM (inactive) | 48.1 µM (inactive) | 22 µM (inactive) | 24.5 µM (inactive) | 89.9 µM (inactive) | 4 µM (inactive) | 36.1 µM (inactive) | 58.1 µM (inactive) | > 100 µM (inactive) | 5.52 µM (inactive) | 32.6 µM (inactive) | 38.1 µM (inactive) | 54 µM (inactive) |  | 
2 | O=C(O)/C(=C\c1ccc(O)cc1)c1cccc2ccccc12 | > 100 µM (inactive) |  | > 100 µM (inactive) | > 100 µM (inactive) | > 100 µM (inactive) | > 100 µM (inactive) |  | > 100 µM (inactive) | > 100 µM (inactive) | > 100 µM (inactive) | > 100 µM (inactive) | > 100 µM (inactive) | > 100 µM (inactive) | > 100 µM (inactive) | > 100 µM (inactive) | > 100 µM (inactive) | > 100 µM (inactive) | > 100 µM (inactive) | > 100 µM (inactive)
3 | COc1cc(/C=N/NC(=O)c2ccc(NC(C)=O)cc2OC)ccc1O | < 0.01 µM (active) | > 100 µM (inactive) | 55 µM (inactive) | 64 µM (inactive) | 34.2 µM (inactive) | > 100 µM (inactive) | > 100 µM (inactive) | > 100 µM (inactive) |  | > 100 µM (inactive) | > 100 µM (inactive) | > 100 µM (inactive) | 39.3 µM (inactive) | 47.4 µM (inactive) | > 100 µM (inactive) | > 100 µM (inactive) | > 100 µM (inactive) | > 100 µM (inactive) | 
4 | CSCCC(NC(=O)C(Cc1c[nH]c2ccccc12)NC(=O)CCNC(=O)OC(C)(C)C)C(=O)NC(CC(=O)O)C(=O)NC(Cc1ccccc1)C(N)=O (configuration not stated) | > 50 µM (inactive) | > 50 µM (inactive) | > 50 µM (inactive) | > 50 µM (inactive) | > 50 µM (inactive) |  | > 50 µM (inactive) | > 50 µM (inactive) | > 50 µM (inactive) | > 50 µM (inactive) | > 50 µM (inactive) |  | > 50 µM (inactive) | > 50 µM (inactive) | > 50 µM (inactive) | > 50 µM (inactive) | > 50 µM (inactive) | > 50 µM (inactive) | > 50 µM (inactive)
5 | Cc1nc(Nc2ccccc2Cl)sc1C(=O)CC(=O)C(N)=O | 22.7 µM (inactive) | 44.9 µM (inactive) | 34.8 µM (inactive) | 39.3 µM (inactive) | > 100 µM (inactive) |  | 26.3 µM (inactive) | 18.8 µM (inactive) | > 100 µM (inactive) | 26.4 µM (inactive) | 33.4 µM (inactive) | > 100 µM (inactive) | 48.8 µM (inactive) | 27.4 µM (inactive) | 13.2 µM (inactive) | 41.8 µM (inactive) | > 100 µM (inactive) | 29 µM (inactive) | 41.9 µM (inactive)
6 | C=Cc1nc2nnc(CCCCCCCCc3nnc4nc(C=C)[nH]n34)n2[nH]1 | > 100 µM (inactive) | > 100 µM (inactive) | 62.5 µM (inactive) | > 100 µM (inactive) | > 100 µM (inactive) | 58.7 µM (inactive) |  | > 100 µM (inactive) | > 100 µM (inactive) | 47.4 µM (inactive) | 21.6 µM (inactive) | 83.9 µM (inactive) | > 100 µM (inactive) | 93.5 µM (inactive) | > 100 µM (inactive) | 51.8 µM (inactive) | > 100 µM (inactive) | > 100 µM (inactive) | 30.7 µM (inactive)
7 | CC(C)[Si](OC1=C(C(=O)N(C)c2ccccc2Cl)CCC1)(C(C)C)C(C)C | 21.1 µM (inactive) | 16.5 µM (inactive) | 14.2 µM (inactive) | 18.3 µM (inactive) | 18.5 µM (inactive) | 19.1 µM (inactive) | 19.2 µM (inactive) | 15.3 µM (inactive) | 17.8 µM (inactive) | 30.3 µM (inactive) |  | 16.3 µM (inactive) | 18.3 µM (inactive) | 19.2 µM (inactive) | 20.6 µM (inactive) | 15 µM (inactive) | 15.8 µM (inactive) | 24 µM (inactive) | 16 µM (inactive)
8 | C1CNCCN2CCCNCCN(C1)CC2 | > 100 µM (inactive) | > 100 µM (inactive) | > 100 µM (inactive) | > 100 µM (inactive) | > 100 µM (inactive) | > 100 µM (inactive) | > 100 µM (inactive) | > 100 µM (inactive) | > 100 µM (inactive) | > 100 µM (inactive) |  | > 100 µM (inactive) | > 100 µM (inactive) | > 100 µM (inactive) | > 100 µM (inactive) | > 100 µM (inactive) | > 100 µM (inactive) | > 100 µM (inactive) | > 100 µM (inactive)
9 | O=S1(=O)c2ccccc2C(=NO)c2ccccc21 | > 100 µM (inactive) | > 100 µM (inactive) | > 100 µM (inactive) | 64 µM (inactive) | > 100 µM (inactive) |  | 59.4 µM (inactive) | > 100 µM (inactive) | > 100 µM (inactive) | 30.3 µM (inactive) | 68.2 µM (inactive) | > 100 µM (inactive) | 24.8 µM (inactive) | 80.2 µM (inactive) | > 100 µM (inactive) | > 100 µM (inactive) | 59.2 µM (inactive) | > 100 µM (inactive) | > 100 µM (inactive)
10 | O=C(/C=C/c1ccc(-c2ccccc2)cc1)NCc1ccc(C(=O)NCc2ccccc2)cc1 | > 100 µM (inactive) | > 100 µM (inactive) | > 100 µM (inactive) | > 100 µM (inactive) | > 100 µM (inactive) | > 100 µM (inactive) |  | 71.1 µM (inactive) | > 100 µM (inactive) |  |  | > 100 µM (inactive) | 12.7 µM (inactive) | > 100 µM (inactive) | > 100 µM (inactive) | > 100 µM (inactive) | > 100 µM (inactive) | > 100 µM (inactive) | > 100 µM (inactive)
11 | OCC1CCCCN1Cc1nc2cc(Cl)ccc2[nH]1 (configuration not stated) | 95.5 µM (inactive) | > 100 µM (inactive) | > 100 µM (inactive) | > 100 µM (inactive) | > 100 µM (inactive) | > 100 µM (inactive) | > 100 µM (inactive) | 56.1 µM (inactive) | > 100 µM (inactive) | > 100 µM (inactive) | > 100 µM (inactive) | > 100 µM (inactive) | 65 µM (inactive) |  | > 100 µM (inactive) | > 100 µM (inactive) | > 100 µM (inactive) | > 100 µM (inactive) | > 100 µM (inactive)
12 | CC(C)=CC[C@]12CCN(C)[C@H]1N(S(=O)(=O)c1ccccc1)c1ccccc12 | > 38.5 µM (inactive) | 6.25 µM (inactive) | > 54.7 µM (inactive) | > 56.9 µM (inactive) | > 44.6 µM (inactive) | > 49.2 µM (inactive) | 29.9 µM (inactive) | > 46.5 µM (inactive) | > 55.5 µM (inactive) | > 43.4 µM (inactive) | > 43.2 µM (inactive) | 43.6 µM (inactive) | > 38.3 µM (inactive) | > 37.1 µM (inactive) | 26.1 µM (inactive) |  | > 56.5 µM (inactive) | > 60.3 µM (inactive) | 32.7 µM (inactive)
13 | Cc1ccc2cc3c(ccc4ccccc43)c3c2c1CC3 [3-METHYLCHOLANTHRENE] | > 100 µM (inactive) | > 100 µM (inactive) | > 100 µM (inactive) | > 100 µM (inactive) | > 100 µM (inactive) |  | > 100 µM (inactive) | > 100 µM (inactive) | > 100 µM (inactive) | > 100 µM (inactive) | > 100 µM (inactive) |  | > 100 µM (inactive) | > 100 µM (inactive) | > 100 µM (inactive) | > 100 µM (inactive) | > 100 µM (inactive) | > 100 µM (inactive) | > 100 µM (inactive)
14 | O=C1CCc2cc([N+](=O)[O-])ccc2O1 | > 100 µM (inactive) |  | > 100 µM (inactive) | > 100 µM (inactive) | > 100 µM (inactive) | > 100 µM (inactive) | > 100 µM (inactive) | > 100 µM (inactive) | > 100 µM (inactive) | > 100 µM (inactive) | > 100 µM (inactive) | > 100 µM (inactive) | > 100 µM (inactive) | > 100 µM (inactive) |  | > 100 µM (inactive) | > 100 µM (inactive) | > 100 µM (inactive) | > 100 µM (inactive)
15 | C#C[C@]1(O)CC[C@H]2[C@@H]3CCc4cc(OC(=O)c5cccc6cc7ccccc7nc56)ccc4[C@H]3CC[C@@]21C | 33.2 µM (inactive) | 62.1 µM (inactive) |  | 14.6 µM (inactive) | 67.5 µM (inactive) | 6.44 µM (inactive) | 22 µM (inactive) | 33.9 µM (inactive) |  | 6.98 µM (inactive) | > 100 µM (inactive) | 38.4 µM (inactive) | 44.4 µM (inactive) | 20.5 µM (inactive) | 20 µM (inactive) | 34 µM (inactive) | 74 µM (inactive) | 29.7 µM (inactive) | 24 µM (inactive)
16 | O=C(O)c1nc2ccc(C(F)(F)F)cc2nc1Nc1ccc(F)cc1 | 18.1 µM (inactive) |  | 11.5 µM (inactive) | 20.7 µM (inactive) | 15.5 µM (inactive) | 15.4 µM (inactive) |  | 28.1 µM (inactive) | 36.6 µM (inactive) | 9.57 µM (inactive) | 11.2 µM (inactive) | 22.6 µM (inactive) | 14.4 µM (inactive) | 18.5 µM (inactive) | 18.6 µM (inactive) |  | 12.5 µM (inactive) | 23.6 µM (inactive) | 7.38 µM (inactive)
